Patent US20200102295A1, “NITROCATECHOL DERIVATIVES AS COMT INHIBITORS” (BIAL - PORTELA & CA, S.A., priority 2005, published 2020)

What was measured:
mouse liver COMT = biological target: T1, mouse liver COMT (Mus musculus, UniProt O88587); assay: Mouse liver COMT activity after oral administration of test compounds; assay type: in vivo; settings: 3 mg/kg oral, 3 h after administration
T1 construct: Aliquots of 0.5 ml of liver homogenates were preincubated; from tissue; host or cells: mouse liver homogenate (NMRI mice, dosed orally; ex vivo activity)
T1 sequence (O88587 1-265): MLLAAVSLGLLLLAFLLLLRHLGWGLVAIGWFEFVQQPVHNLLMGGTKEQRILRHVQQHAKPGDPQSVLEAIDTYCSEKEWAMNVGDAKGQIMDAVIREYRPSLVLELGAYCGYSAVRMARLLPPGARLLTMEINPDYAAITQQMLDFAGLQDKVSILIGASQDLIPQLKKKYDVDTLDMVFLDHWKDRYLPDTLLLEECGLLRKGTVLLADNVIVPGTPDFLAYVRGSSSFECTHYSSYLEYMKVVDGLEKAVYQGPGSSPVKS

[1] = system: Neuro 2A mouse neuroblastoma cells; assay: Cell toxicity: Neuro 2A cell viability (calcein-AM); assay type: cell-based; settings: Neuro 2A cells, 30 μM, 24 h exposure
rat liver COMT = biological target: T2, rat liver COMT (Rattus norvegicus, UniProt P22734); assay: Rat liver COMT activity after oral administration of test compounds; assay type: in vivo; settings: for Rat Liver COMT activity (% control): 3 mg/kg oral
T2 construct: the organs were immediately removed and homogenised in 5 mM phosphate buffer of pH 7.8; from tissue; host or cells: rat liver homogenate (Wistar rats, dosed orally; ex vivo activity)
T2 sequence (P22734 1-264): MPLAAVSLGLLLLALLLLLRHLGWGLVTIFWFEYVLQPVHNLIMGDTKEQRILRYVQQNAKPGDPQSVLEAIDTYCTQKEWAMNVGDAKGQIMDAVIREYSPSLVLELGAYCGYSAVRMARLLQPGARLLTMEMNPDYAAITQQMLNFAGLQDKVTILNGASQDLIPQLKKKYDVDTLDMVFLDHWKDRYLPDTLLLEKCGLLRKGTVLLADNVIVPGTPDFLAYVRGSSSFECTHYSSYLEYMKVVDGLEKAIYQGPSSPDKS

[2] = system: plasma levels of L-DOPA and 3-O-methyl-L-DOPA (3-OMD); assay: Levels of L-DOPA and 3-O-methyl-L-DOPA in plasma of rats treated with L-DOPA plus benserazide; assay type: in vivo, rat; settings: 3 mg/kg oral, 2 h after administration

## Cc1ccc(C(=O)c2cc(O)c(O)c([N+](=O)[O-])c2)cc1 [Tolcapone, 3,4-dihydroxy-4′ -methyl-5-nitrobenzophenone, reference compound]
Mouse liver COMT
  COMT activity (% of control): 13.9 % of control
[1]
  % of viable cells: 27.2%
Rat liver COMT; 1 h after administration
  Rat Liver COMT activity (% control): 18.3 % control
Rat liver COMT; 3 h after administration
  Rat Liver COMT activity (% control): 28.6 % control
Rat liver COMT; 6 h after administration
  Rat Liver COMT activity (% control): 56.8 % control
Rat liver COMT; 9 h after administration
  Rat Liver COMT activity (% control): 83.9 % control
Rat liver COMT; rat, po, read-out: COMT inhibition nine hours after administration
  inhibition at 3 mg/kg: ~16%
[2]; L-DOPA plus benserazide 1 h before plasma collection
  L-DOPA % increase (plasma level, % control): 202.4%
[2]; L-DOPA plus benserazide 1 h before plasma collection, given with minus sign
  3-OMD % reduction (plasma level, % control): −89.0%
[2]; plasma ratio
  L-Dopa/3-OMD: 27.6
